Counter-ions that a name gives are not always drawn.
What was measured:
Settings in all cases: exposure time: 15 min to 3 h acute
Dugesia japonica [1] = experiment: crawl-out incidence (% planarians); higher = higher incidence or increase relative to vehicle control
Dugesia japonica [2] = experiment: speed in dark vs vehicle (% change vs vehicle); higher = higher incidence or increase relative to vehicle control
Summary of the method: (§1)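 Crawling speed in the dark or during blue-light periods was measured by automated tracking of intact, fasted Dugesia japonica, one per well of a 48-well plate in 200 μL. Worms were tested 15 min to 3 h after exposure in 0.5% DMSO or water vehicle. Eight worms per concentration per plate were run in technical triplicate (n = 24). Each worm was normalised to the plate's vehicle median, and the value is the median percent change; worms that crawled out were excluded.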

Dugesia japonica [3] = experiment: C-shape incidence (% planarians (vehicle-normalised)); higher = higher incidence or increase relative to vehicle control
Summary of the method: (§2)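 Body shape incidence, for a given shape or for any abnormal shape, is reported ×100 and normalised to vehicle controls on the same plate, with negative values set to 0. D. japonica planarians fasted for 5–7 days were placed one per well in 200 μL in sealed 48-well plates and exposed to at least 5 concentrations. Within 15 minutes–3 hours of exposure, a researcher scored contraction, C-shape, corkscrew and hyperkinesis manually and blind, excluding worms that crawled out.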

Dugesia japonica [4] = experiment: corkscrew incidence (% planarians (vehicle-normalised)); higher = higher incidence or increase relative to vehicle control
Summary of the method: as §2

Dugesia japonica [5] = experiment: stickiness incidence (% planarians (vehicle-normalised)); higher = higher incidence or increase relative to vehicle control
Summary of the method: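 Worms that crawled out of their wells were excluded from this binary stickiness endpoint, scored in fasted Dugesia japonica planarians and normalised to vehicle incidence on the same plate. Each planarian was kept alone in a sealed 48-well plate well in 200 μL of solution, with 0.5% DMSO or water as vehicle, and tested 15 min–3 h after exposure to half- or quarter-log concentration series. Technical triplicates were pooled (n = 24), negative values became 0, and values were multiplied by 100.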

Dugesia japonica [6] = experiment: hyperkinesis incidence (% planarians (vehicle-normalised)); higher = higher incidence or increase relative to vehicle control
Summary of the method: as §2

Dugesia japonica [7] = experiment: speed first 30 s blue light vs vehicle (% change vs vehicle); higher = higher incidence or increase relative to vehicle control
Summary of the method: as §1

Dugesia japonica [8] = experiment: speed second 30 s blue light vs vehicle (% change vs vehicle); higher = higher incidence or increase relative to vehicle control
Summary of the method: as §1

Dugesia japonica [9] = experiment: pharynx extrusion incidence (% planarians (vehicle-normalised)); higher = higher incidence or increase relative to vehicle control
Summary of the method: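 Fasted, intact Dugesia japonica were scored manually and blind for pharynx extrusion as a body-shape category, with the incidence normalised to in-plate vehicle controls. Testing took place 15 min to 3 h after exposure, one worm per well in 200 μL of 0.5% DMSO or water vehicle, with eight worms per concentration per plate in triplicate (n = 24). Worms that crawled out were excluded, and negative values were set to 0.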

Dugesia japonica [10] = experiment: loss of phototaxis incidence (% planarians (vehicle-normalised)); higher = higher incidence or increase relative to vehicle control
Summary of the method: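 For each concentration, eight intact, fasted Dugesia japonica per plate were placed singly in wells of a 48-well plate in 200 μL and run in technical triplicate (n = 24). Testing took place 15 min to 3 h after exposure in 0.5% DMSO or water vehicle. Loss of phototaxis was recorded as present or absent by automated object tracking and expressed as an incidence rate normalised to in-plate vehicle controls. For this rate, ×100 was applied, negatives were set to 0, and worms that crawled out were excluded.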

Dugesia japonica [11] = experiment: total locomotor bursts minus vehicle (bursts difference vs vehicle); higher = higher incidence or increase relative to vehicle control
Summary of the method: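 The value is the median normalised response for total locomotor bursts, an unstimulated behaviour measured by image-based object tracking in fasted Dugesia japonica planarians. Animals sat singly in the wells of a sealed 48-well plate in 200 μL solution and were tested 15 min–3 h after exposure to half- or quarter-log concentration series in 0.5% DMSO or water. Each planarian's value was corrected by subtracting the plate vehicle-control median, with no ×100 scaling, and crawled-out worms were left out.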

Dugesia japonica [12] = experiment: noxious heat displacement strength vs vehicle (% change vs vehicle); higher = higher incidence or increase relative to vehicle control
Summary of the method: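 Each intact, fasted Dugesia japonica was tested alone in a well of a 48-well plate in 200 μL, 15 min to 3 h after exposure in 0.5% DMSO or water vehicle. Eight worms per concentration per plate were used in technical triplicate (n = 24). Displacement strength under noxious heat came from the scrunching assay with automated object tracking and is given as the median percent change against the plate's vehicle median, excluding worms that crawled out.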

Dugesia japonica [13] = experiment: contracted body shape incidence (% planarians (vehicle-normalised)); higher = higher incidence or increase relative to vehicle control
Summary of the method: as §2

Dugesia japonica [14] = experiment: anxiety (time in outer well region) vs vehicle (% change vs vehicle); higher = higher incidence or increase relative to vehicle control
Summary of the method: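 Dugesia japonica planarians fasted for 5–7 days were placed one per well in 200 μL in sealed 48-well plates and exposed to at least 5 concentrations, with n = 24 per concentration in technical triplicates, then screened within 15 minutes–3 hours. Object tracking in MATLAB or Python measured the time each worm spent in the outer portion of the well, and worms that crawled out were excluded. Each response was divided by, or reduced by, the plate vehicle median and multiplied by 100. The reported value is the median of these normalized responses.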

Dugesia japonica [15] = experiment: any abnormal body shape incidence (% planarians (vehicle-normalised)); higher = higher incidence or increase relative to vehicle control
Summary of the method: as §2

Dugesia japonica [16] = experiment: resting fraction in dark vs vehicle (difference in fraction x100 vs vehicle); higher = higher incidence or increase relative to vehicle control
Summary of the method: (§3)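 In technical triplicate, eight intact, fasted Dugesia japonica per concentration per plate were tracked automatically to score the resting fraction in the dark or under blue light. Each worm had its own well of a 48-well plate containing 200 μL and was tested 15 min to 3 h after exposure in 0.5% DMSO or water vehicle. Reported values are medians of each worm's difference from the plate's vehicle median multiplied by 100, leaving out worms that crawled out.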

Dugesia japonica [17] = experiment: loss of heat-induced scrunching incidence (% planarians (vehicle-normalised)); higher = higher incidence or increase relative to vehicle control
Summary of the method: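 Planarians of the species D. japonica, fasted for 5–7 days, were placed singly in wells of sealed 48-well plates in 200 μL and exposed to at least 5 concentrations, 24 worms per concentration in technical triplicates. Scrunching in response to a noxious heat stimulus was tested within 15 minutes–3 hours, and any worm that crawled out was excluded. The reported figure is the incidence of non-scrunching worms, normalised to vehicle controls on the same plate. This incidence is given ×100, with negatives set to 0.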

Dugesia japonica [18] = experiment: resting fraction in blue light vs vehicle (difference in fraction x100 vs vehicle); higher = higher incidence or increase relative to vehicle control
Summary of the method: as §3

Row | SMILES | crawl-out incidence (Dugesia japonica [1]) | speed in dark (Dugesia japonica [2]) | C-shape incidence (Dugesia japonica [3]) | corkscrew incidence (Dugesia japonica [4]) | stickiness incidence (Dugesia japonica [5]) | hyperkinesis incidence (Dugesia japonica [6]) | speed first 30 s blue light (Dugesia japonica [7]) | speed second 30 s blue light (Dugesia japonica [8]) | pharynx extrusion incidence (Dugesia japonica [9]) | loss of phototaxis incidence (Dugesia japonica [10]) | total locomotor bursts minus vehicle (Dugesia japonica [11]) | noxious heat displacement strength (Dugesia japonica [12]) | contracted body shape incidence (Dugesia japonica [13]) | anxiety (Dugesia japonica [14]) | any abnormal body shape incidence (Dugesia japonica [15]) | resting fraction in dark (Dugesia japonica [16]) | loss of heat-induced scrunching incidence (Dugesia japonica [17]) | resting fraction in blue light (Dugesia japonica [18])
1 | CNCCC(Oc1ccc(C(F)(F)F)cc1)c1ccccc1 (stereo unspecified) [fluoxetine hydrochloride] (3.16 µM) | 0 | -5.68 | 0 | 0 | ≤ 0 | 0 | -11.9 | -5.1 | 0 | ≤ 0 | -7.5 | -9.15 | 0 | 8.3 | 0 | -6.73 | 16.7 | -1.89
2 | CNCCC(Oc1ccc(C(F)(F)F)cc1)c1ccccc1 (stereo unspecified) [fluoxetine hydrochloride] (10 µM) | 4.17 | -41.5 | 0 | 0 | ≤ 0 | 0 | -37.3 | -39.7 | 0 | ≤ 0 | 1 | -40 | 0 | 10.3 | 0 | -0.39 | 8.7 | -1.17
3 | CNCCC(Oc1ccc(C(F)(F)F)cc1)c1ccccc1 (stereo unspecified) [fluoxetine hydrochloride] (31.6 µM) | 0 | -58.6 | 0 | 0 | ≤ 0 | 0 | -70.9 | -66.4 | 0 | 16.7 | 9 | -49.6 | 0 | 10.3 | 0 | 10.3 | 8.33 | 6.49
4 | CNCCC(Oc1ccc(C(F)(F)F)cc1)c1ccccc1 (stereo unspecified) [fluoxetine hydrochloride] (100 µM) | 0 | -65.4 | 33.3 | 0 | ≤ 0 | 29.2 | -90.4 | -89.3 | 0 | 37.5 | 15.5 | -80.3 | 0 | 7.58 | 50 | 70.7 | 37.5 | 79.5
5 | O=C(CCCN1CCC(O)(c2ccc(Cl)cc2)CC1)c1ccc(F)cc1 [haloperidol] (3.16 µM) | 8.33 | -38.5 | 0 | 4.76 | ≤ 0 | 0 | -68.4 | -58.4 | 0 | 31.8 | 4.5 | -30.8 | 4.76 | -3.6 | 9.52 | 16.5 | 9.09 | 12.2
6 | O=C(CCCN1CCC(O)(c2ccc(Cl)cc2)CC1)c1ccc(F)cc1 [haloperidol] (10 µM) | 16.7 | -47.5 | 0 | 10 | ≤ 0 | 10 | -57.5 | -53.4 | 0 | 20 | 11.5 | -26.4 | 5 | -0.48 | 20 | 15.2 | 25 | 8.2
7 | O=C(CCCN1CCC(O)(c2ccc(Cl)cc2)CC1)c1ccc(F)cc1 [haloperidol] (31.6 µM) | 16.7 | -59.3 | 0 | 52.6 | ≤ 0 | 21.1 | -68 | -62.8 | 0 | 15 | 15.5 | -24 | 10.5 | -7.34 | 63.2 | 35.2 | 5 | 16.3
8 | O=C(CCCN1CCC(O)(c2ccc(Cl)cc2)CC1)c1ccc(F)cc1 [haloperidol] (100 µM) | 4.17 | -66.9 | 0 | 28.6 | ≤ 0 | 19 | -69.3 | -68.8 | 0 | 13 | 25 | -19.3 | 0 | 1.65 | 38.1 | 48.4 | 34.8 | 30.8
9 | CN(C)CCCN1c2ccccc2CCc2ccccc21 [imipramine] (1 µM) | 0 | -23.4 | 0 | 0 | ≤ 0 | 0 | -21.6 | -18.2 | 0 | ≤ 0 | 3 | -4.45 | 0 | -4.11 | 4.17 | 6.78 | ≤ 0 | 0.17
10 | CN(C)CCCN1c2ccccc2CCc2ccccc21 [imipramine] (3.16 µM) | 0 | -44.7 | 0 | 0 | ≤ 0 | 0 | -51.6 | -43.6 | 0 | ≤ 0 | 11 | -7.92 | 0 | 3.55 | 0 | 12.6 | ≤ 0 | 6.5
11 | CN(C)CCCN1c2ccccc2CCc2ccccc21 [imipramine] (10 µM) | 0 | -48.9 | 0 | 0 | 16.7 | 0 | -47.9 | -51.7 | 0 | 12.5 | 10.8 | -29.7 | 0 | 0.22 | 0 | 4.41 | ≤ 0 | 3.16
12 | CN(C)CCCN1c2ccccc2CCc2ccccc21 [imipramine] (31.6 µM) | 0 | -64 | 0 | 0 | 34.8 | 33.3 | -68.6 | -64.4 | 4.17 | 20.8 | 15.2 | -21.9 | 12.5 | -4.58 | 45.8 | 6.51 | ≤ 0 | 6.1
13 | O=C(O)/C=C\C(=O)O [maleic acid] (200 µM) | 0 | -20.4 | 0 | 0 | 12.5 | 0 | -32.5 | -23.8 | 0 | ≤ 0 | -2 | -39.3 | 0 | 23.7 | 0 | -12.7 | 33.3 | -5.42
14 | Cc1ncc2n1-c1ccc(Cl)cc1C(c1ccccc1F)=NC2 [midazolam] (17.8 µM) | 0 | -14.7 | 0 | 0 | ≤ 0 | 33.3 | -3.83 | -2.19 | 0 | ≤ 0 | 1 | -19.1 | 0 | -7.26 | 33.3 | 1.03 | ≤ 0 | -0.5
15 | Cc1ncc2n1-c1ccc(Cl)cc1C(c1ccccc1F)=NC2 [midazolam] (31.6 µM) | 0 | 8.87 | 0 | 0 | ≤ 0 | 20.8 | -1.82 | 23.1 | 0 | ≤ 0 | -0.5 | -27.4 | 0 | 3.09 | 20.8 | -0.404 | 8.33 | -0.5
16 | Cc1ncc2n1-c1ccc(Cl)cc1C(c1ccccc1F)=NC2 [midazolam] (56.2 µM) | 0 | -34 | 0 | 0 | 4.17 | 20.8 | -29.6 | -10.2 | 0 | ≤ 0 | 2.5 | -25.6 | 12.5 | 7.1 | 33.3 | 22.7 | ≤ 0 | 2.61
17 | Cc1ncc2n1-c1ccc(Cl)cc1C(c1ccccc1F)=NC2 [midazolam] (100 µM) | 0 | -70.7 | 20.8 | 0 | 20.8 | 70.8 | -93 | -87.7 | 4.17 | 29.2 | 28.5 | -48.3 | 45.8 | 2.35 | 95.8 | 59.7 | 45.8 | 68.2

Reference: the supplement of paper PMC11781733
